Test results as given in patent US20240124422A1, “MUTANT PI3K-ALPHA INHIBITORS AND THEIR USE AS PHARMACEUTICALS” (Prelude Therapeutics Incorporated, priority 2022, published 2024).
Read-outs that look alike come from different tables or passages of the source.

Key:
[1] = tested on: phosphorylation of AKT on Ser473 as a readout of the PI3K pathway in T-47D (heterozygous PIK3CA H1047R) cells; test: PI3K pathway activation assay, pAKT Ser473 HTRF, T-47D cells; type: cell-based; conditions: two hours of treatment
How it was run: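 pAKT Ser473 measured by HTRF in SKBR3 (PIK3CA WT) and T-47D (PIK3CA H1047R) cells, 4,000/well. Signal normalised to background and DMSO controls as percent inhibition.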

[2] = tested on: phosphorylation of AKT on Ser473 as a readout of the PI3K pathway in SKBR3 (PIK3CA WT) cells; test: PI3K pathway activation assay, pAKT Ser473 HTRF, SKBR3 cells; type: cell-based; conditions: two hours of treatment
Description: The inhibitory activity of compounds was evaluated by measuring phosphorylation of AKT on Ser473 as a readout of the PI3K pathway using HTRF (CisBio catalog number: 64AKSPE). These studies were conducted in the T-47D (heterozygous PIK3CA H1047R) and SKBR3 (PIK3CA WT) cell lines. Cells were maintained in a 37° C. incubator at 5% CO2 in the following media: T-47D: RPMI 1640, ATCC© Modification (Gibco, A10491-01) supplemented with 10% v/v FBS (Gibco, 26140-079), 1% penicillin streptomycin (Gibco, 15140-122), and 7.4 ug/mL insulin (MilliporeSigma, I9278); SKBR3: McCoy's 5a (Modified) Medium (Gibco, 16600-082) supplemented with 10% v/v FBS (Gibco, 26140-079). Cells were seeded in 384-well plates at a density of 4,000 cells/well. Compounds dissolved in DMSO were added using a digital dispense (D300E, Tecan) 10-point serial dilution. After two hours of treatment, cells were lysed for thirty minutes and then incubated with detection reagents per HTRF kit material and manufacturer's instructions. Fluorescence signal was measured with a multimode plate reader (Envision 2105, Perkin Elmer). Fluorescent signal was normalized to background and DMSO controls to obtain percent inhibition/activity for each compound.

IC50 ([1]; Homo sapiens, T47D, 2 h)	IC50 ([2]; Homo sapiens, SK-BR-3, 2 h)	SMILES	IC50 ([1]; read-out: T47D pAKT IC50)	IC50 [2]
< 0.5 µM	> 10 µM	COC(=O)NC1[C@H]2CN(c3nc4c(C(C)Nc5ccccc5C(=O)O)cc(C)cc4c(=O)n3C)C[C@@H]12 (stereo partly drawn) [Example 58, 2-((1-(2-((1R,5S,6s)-6-((methoxycarbonyl)amino)-3-azabicyclo[3.1.0]hexan-3-yl)-3,6-dimethyl-4-oxo-3,4-dihydroquinazolin-8-yl)ethyl)amino)benzoic acid]	–	–
0.5 to 10 µM	> 10 µM	Cc1ccc(C(=O)O)c(NC(C)c2cc(C)cc3c(=O)n(C)c(N4Cc5ccccc5C4)nc23)c1 (stereo not drawn) [Example 69, 2-((1-(2-(Isoindolin-2-yl)-3,6-dimethyl-4-oxo-3,4-dihydroquinazolin-8-yl)ethyl)amino)-4-methylbenzoic]	–	–
< 0.5 µM	> 10 µM	CC(Nc1ccccc1C(=O)O)c1cc(Br)cc2c(=O)n(C)c(N3Cc4ccccc4C3)nc12 (stereo not drawn) [Example 70, 2-((1-(6-Bromo-2-(isoindolin-2-yl)-3-methyl-4-oxo-3,4-dihydroquinazolin-8-yl)ethyl)amino)benzoic acid]	–	–
–	–	Cc1cc(C(C)Nc2ccccc2C(=O)O)c2nc(N3C[C@@H]4C(C(=O)N(C)C5CCC5)[C@@H]4C3)n(C)c(=O)c2c1 (stereo partly drawn) [Example 82, 2-((1-(2-((1R,5S,6R)-6-(Cyclobutyl(methyl)carbamoyl)-3-azabicyclo[3.1.0]hexan-3-yl)-3,6-dimethyl-4-oxo-3,4-dihydroquinazolin-8-yl)ethyl)amino)benzoic acid]	< 0.5 µM	> 10 µM
–	–	Cc1cc(C(C)Nc2ccccc2C(=O)O)c2nc(N3C[C@@H]4[C@H](C3)[C@H]4C(=O)N(C)C)n(C)c(=O)c2c1 (stereo partly drawn) [Example 90, 2-((1-(2-((1R,5S,6R)-6-(Dimethylcarbamoyl)-3-azabicyclo[3.1.0]hexan-3-yl)-3,6-dimethyl-4-oxo-3,4-dihydroquinazolin-8-yl)ethyl)amino)benzoic acid]	0.5 to 10 µM	> 10 µM
< 0.5 µM	> 10 µM	Cc1cc(C(C)Nc2ccccc2C(=O)O)c2nc(N3Cc4ccccc4C3)n(C3CC(CO)(CO)C3)c(=O)c2c1 (stereo not drawn) [Example 98, 2-((1-(3-(3,3-Bis(hydroxymethyl)cyclobutyl)-2-(isoindolin-2-yl)-6-methyl-4-oxo-3,4-dihydroquinazolin-8-yl)ethyl)amino)benzoic acid]	–	–
0.5 to 10 µM	> 10 µM	COc1ccc(NC(C)c2cc(C)cc3c(=O)n(C)c(N4CC5CC5C4)nc23)c(C(=O)O)n1 (stereo not drawn) [Example 119, 3-[1-[2-(3-Azabicyclo[3.1.0]hexan-3-yl)-3,6-dimethyl-4-oxoquinazolin-8-yl]ethylamino]-6-methoxypyridine-2-carboxylic acid]	–	–
0.5 to 10 µM	> 10 µM	Cc1cc(C(C)Nc2ccc(C)nc2C(=O)O)c2nc(N3CC4CC4C3)n(C)c(=O)c2c1 (stereo not drawn) [Example 120, 3-[1-[2-(3-Azabicyclo[3.1.0]hexan-3-yl)-3,6-dimethyl-4-oxoquinazolin-8-yl]ethylamino]-6-methylpyridine-2-carboxylic acid]	–	–
< 0.5 µM	> 10 µM	Cc1cc(C(C)Nc2ccc(F)cc2C(=O)O)c2nc(N3CC4CC4C3)n(C)c(=O)c2c1 (stereo not drawn) [Example 123, 2-[1-[2-(3-Azabicyclo[3.1.0]hexan-3-yl)-3,6-dimethyl-4-oxoquinazolin-8-yl]ethylamino]-5-fluorobenzoic acid]	–	–
